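Interpolation was linear, between the two tested concentrations surrounding the appropriate level; five concentrations were tested over 48 hours in 96-well plates. Abbreviation: GI50, concentration required for 50% inhibition of growth. TGI is the concentration that stops growth completely.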
Columns and labels:
Assay in all cases: DTP human tumour cell line panel, 48 h
[1] = system: HCT-116 colon
[2] = system: COLO 205 colon
[3] = system: RPMI-8226 leukemia
[4] = system: SF-295 CNS
[5] = system: ACHN renal
[6] = system: NCI-H460 lung
[7] = system: NCI-H23 lung
[8] = system: PC-3 prostate
[9] = system: 786-0 renal
[10] = system: KM12 colon
[11] = system: MOLT-4 leukemia
[12] = system: NCI/ADR-RES ovarian
[13] = system: MDA-MB-435
[14] = system: LOX IMVI melanoma
[15] = system: MALME-3M melanoma
[16] = system: A549 NSCLC
[17] = system: CAKI-1 renal
[18] = system: HT29 colon
[19] = system: SN12C renal
[20] = system: UO-31 renal
[21] = system: U251 CNS
[22] = system: SK-MEL-2 melanoma
[23] = system: HOP-92 NSCLC
[24] = system: UACC-62 melanoma
[25] = system: RXF 393 renal
[26] = system: SK-MEL-28 melanoma
[27] = system: T-47D breast
[28] = system: HOP-62 NSCLC
[29] = system: NCI-H522 lung
[30] = system: TK-10 renal
[31] = system: K-562 leukemia
[32] = system: MDA-MB-231 breast
[33] = system: HCC-2998 colon
[34] = system: A498 renal
[35] = system: SNB-75 CNS
[36] = system: CCRF-CEM leukemia
[37] = system: IGROV1 ovarian
[38] = system: SW-620 colon
[39] = system: HS 578T breast
[40] = system: HCT-15 colon
[41] = system: NCI-H226 lung
[42] = system: MCF7 breast
[43] = system: SK-MEL-5 melanoma
[44] = system: M14 melanoma
[45] = system: SR leukemia
[46] = system: EKVX NSCLC
[47] = system: UACC-257 melanoma
[48] = system: BT-549 breast
[49] = system: SK-OV-3 ovarian
[50] = system: SNB-19 CNS
[51] = system: SF-268 CNS
[52] = system: OVCAR-4 ovarian
[53] = system: OVCAR-3 ovarian
[54] = system: DU-145 prostate
[55] = system: OVCAR-8 ovarian
[56] = system: OVCAR-5 ovarian
[57] = system: SF-539 CNS
[58] = system: HL-60(TB) leukemia

In the case of `Oc1c(CN2CCC(N3CCCCC3)CC2)cc(Cc2cc(CN3CCC(N4CCCCC4)CC3)c(O)c3ncccc23)c2cccnc12`, the GI50 [1] is reported as 0.725 µM, the TGI [1] is reported as 7.17 µM and the GI50 [2] is reported as 0.372 µM. For the same compound, the TGI [2] was 1.94 µM, the GI50 [3] was 1.86 µM and the TGI [3] was 7.22 µM. It also gave a GI50 [4] of 1.64 µM, a TGI [4] of 3.58 µM and a GI50 [5] of 1.4 µM. The TGI [5] was 11.7 µM, the GI50 [6] was 0.287 µM and the TGI [6] was 11.5 µM. It also gave a GI50 [7] of 2.28 µM, a TGI [7] of 14 µM and a GI50 [8] of 1.28 µM. For the same compound, the TGI [8] was 15.9 µM, the GI50 [9] was 1.53 µM and the TGI [9] was 5.96 µM. It also gave a GI50 [10] of 0.677 µM, a TGI [10] of 14.6 µM and a GI50 [11] of 0.3 µM. It also gave a TGI [11] of 6.22 µM, a GI50 [12] of 3.12 µM and a TGI [12] of 17.9 µM. It also gave a GI50 [13] of 1.77 µM, a TGI [13] of 6.41 µM and a GI50 [14] of 0.62 µM. The TGI [14] was 2.89 µM, the GI50 [15] was 1.79 µM and the TGI [15] was 4.26 µM. The GI50 [16] was 1.61 µM, the TGI [16] was 5.75 µM and the GI50 [17] was 0.941 µM. It also gave a TGI [17] of 10.2 µM, a GI50 [18] of 1.07 µM and a TGI [18] of 5.39 µM. It also gave a GI50 [19] of 1.62 µM, a TGI [19] of 16 µM and a GI50 [20] of 1 µM. It also gave a TGI [20] of 4.22 µM, a GI50 [21] of 0.835 µM and a TGI [21] of 13.6 µM. The GI50 [22] was 2.21 µM, the TGI [22] was 7.04 µM and the GI50 [23] was 3.38 µM. The TGI [23] was 21 µM, the GI50 [24] was 0.609 µM and the TGI [24] was 5.17 µM. For the same compound, the GI50 [25] was 1.94 µM, the TGI [25] was 10.2 µM and the GI50 [26] was 1.24 µM. For the same compound, the TGI [26] was 5.77 µM, the GI50 [27] was 0.51 µM and the TGI [27] was 4.8 µM. The GI50 [28] was 0.425 µM, the TGI [28] was 4.93 µM and the GI50 [29] was 1.39 µM. For the same compound, the TGI [29] was 3.63 µM, the GI50 [30] was 1.14 µM and the TGI [30] was 10.3 µM. It also gave a GI50 [31] of 0.617 µM, a TGI [31] of 8.81 µM and a GI50 [32] of 0.329 µM. For the same compound, the TGI [32] was 14.4 µM, the GI50 [33] was 1.19 µM and the TGI [33] was 6.15 µM. The GI50 [34] was 5.02 µM, the TGI [34] was 18 µM and the GI50 [35] was 1.65 µM. For the same compound, the TGI [35] was 13.4 µM, the GI50 [36] was 0.403 µM and the TGI [36] was 3.51 µM. It also gave a GI50 [37] of 1.16 µM, a TGI [37] of 17.3 µM and a GI50 [38] of 0.726 µM. For the same compound, the TGI [38] was 15.1 µM, the GI50 [39] was 4.67 µM and the TGI [39] was 28.7 µM. It also gave a GI50 [40] of 0.797 µM, a TGI [40] of 14.6 µM and a GI50 [41] of 1.49 µM. The TGI [41] was 4.53 µM, the GI50 [42] was 0.865 µM and the TGI [42] was 10.3 µM. For the same compound, the GI50 [43] was 1.15 µM, the TGI [43] was 2.59 µM and the GI50 [44] was 1.11 µM. The TGI [44] was 2.75 µM, the GI50 [45] was 0.652 µM and the TGI [45] was 3.74 µM. It also gave a GI50 [46] of 0.57 µM, a TGI [46] of 15.5 µM and a GI50 [47] of 2.08 µM. It also gave a TGI [47] of 4.31 µM, a GI50 [48] of 1.48 µM and a TGI [48] of 5.13 µM. For the same compound, the GI50 [49] was 1.21 µM, the TGI [49] was 5.08 µM and the GI50 [50] was 2.65 µM. It also gave a TGI [50] of 22.5 µM, a GI50 [51] of 0.537 µM and a TGI [51] of 13.8 µM. It also gave a GI50 [52] of 0.435 µM, a TGI [52] of 13.6 µM and a GI50 [53] of 0.517 µM. For the same compound, the TGI [53] was 10.1 µM, the GI50 [54] was 0.871 µM and the TGI [54] was 16.1 µM. The GI50 [55] was 1.83 µM, the TGI [55] was 12.3 µM and the GI50 [56] was 2.74 µM. For the same compound, the TGI [56] was 20.3 µM.

In the case of `N#Cc1cc2c(cc1Cl)Sc1nccn1S2(=O)=O`, the TGI [1] is reported as 4.03 µM, the TGI [57] is reported as 12.2 µM and the TGI [2] is reported as 31.5 µM. The TGI [3] was 20.8 µM, the TGI [4] was 12.2 µM and the TGI [5] was 4.64 µM. It also gave a TGI [6] of 32.2 µM, a TGI [7] of 3.35 µM and a TGI [8] of 8.93 µM. It also gave a TGI [9] of 28.8 µM, a TGI [10] of 20.7 µM and a TGI [11] of 2.54 µM. The TGI [12] was 3.9 µM, the TGI [13] was 17.5 µM and the TGI [14] was 3.19 µM. The TGI [15] was 22.2 µM, the TGI [16] was 28.7 µM and the TGI [17] was 3.6 µM. It also gave a TGI [18] of 3.91 µM, a TGI [19] of 20.8 µM and a TGI [20] of 10.7 µM. For the same compound, the TGI [21] was 3.21 µM, the TGI [22] was 12.8 µM and the TGI [23] was 15.3 µM. For the same compound, the TGI [24] was 7.32 µM, the TGI [25] was 15.5 µM and the TGI [26] was 7.33 µM. It also gave a TGI [27] of 8.57 µM, a TGI [28] of 10.8 µM and a TGI [29] of 4.11 µM. It also gave a TGI [30] of 28 µM, a TGI [31] of 17.2 µM and a TGI [32] of 12.4 µM. For the same compound, the TGI [34] was 33 µM, the TGI [35] was 20.4 µM and the TGI [37] was 13.6 µM. For the same compound, the TGI [38] was 14.4 µM, the TGI [39] was 8.37 µM and the TGI [58] was 16.6 µM. For the same compound, the TGI [40] was 3.28 µM, the TGI [41] was 18 µM and the TGI [42] was > 23.4 µM. It also gave a TGI [43] of 22.6 µM, a TGI [44] of 4.02 µM and a TGI [45] of 3.54 µM. For the same compound, the TGI [46] was 35.9 µM, the TGI [47] was 5.81 µM and the TGI [48] was 13 µM. The TGI [49] was 18.1 µM, the TGI [50] was 24.6 µM and the TGI [51] was 13 µM. It also gave a TGI [52] of 22.1 µM, a TGI [53] of 2.13 µM and a TGI [54] of 6.18 µM. It also gave a TGI [55] of 8.9 µM and a TGI [56] of 27.4 µM.
